# The SangsterLogP compilation
# Test: method code SF-AS, from DOI: 10.1016/0223-5234(96)88212-2
# Settings: pH 7.4
row,logD,SMILES
1,3.6,Clc1ccccc1N1CCN(CCCOn2nnc3ccccc32)CC1
2,3.35,Clc1ccccc1N1CCN(CCn2nnc3ccccc32)CC1
